According to patent US20220324909A1, “THERAPEUTIC PEPTIDES” (COHBAR, INC., priority 2019, published 2022):
Non-standard residues stand in square brackets, D forms with d. No end group written: not given here.

Columns and labels:
3T3-L1 mouse adipocytes = test: Free fatty acid levels in 3T3-L1 mouse adipocytes (Example 12, 10 μM); assay type: cell-based; settings: peptide 10 μM, 20-22 h then 3 h with isoproterenol 1 nM
Experimental: The effect of the peptides on fatty acid metabolism can be assessed using an assay of free fatty acid levels in cultured cells such as mouse adipocytes. Peptides were initially prepared as 10 mM stock in DMSO, diluted to 1 mM in H2O, and used at a final concentration of 10 μM (0.1% DMSO). […] Insulin at 100 nM was added to control wells.

C2C12 cells [1] = test: ATP levels in cultured C2C12 cells (CellTiter-Glo); assay type: cell-based, mouse; settings: peptide 10 μM, 3 days with readdition every 24 hours, relative to 0.1% DMSO control
Experimental: The effect of the peptides on cellular metabolism can be assessed using an assay of ATP levels in cultured cells such as mouse myoblast cells. Peptides were initially prepared as 10 mM stock in DMSO, diluted to 1 mM in H2O, and used at a final concentration of 10 μM (0.1% DMSO). […] Lovastatin was prepared as 10 mM stock in 70% Ethanol and used at final concentration of 10 μM containing 0.1% DMSO. CellTiter-Glo® Assay kit was purchased from Promega (Madison, Wis.). […] C2C12 cells were grown in DMEM medium supplemented with 20% FBS with 100 IU/ml penicillin and 100 μg/ml streptomycin. […] C2C12 cells were seeded at 800 cells per well on 96-well plates. […] ATP levels were determined using a CellTiter-Glo Assay kit according to the manufacturer's instructions. Luminescence for each sample well on the plate was measured using a Cytation 3 plate reader (BioTek, Winooski, Vt.). Activity was calculated relative to 0.1% DMSO treated control. The relative standard deviation of the result for the 0.1% DMSO treated control was <5%. […] ATP levels for treatment with lovastatin (10 μM) were <50% of the 0.1% DMSO treated control value.

C2C12 cells [2] = test: Caspase 3/7 activity in C2C12 cells; assay type: cell-based, mouse; settings: peptide 10 μM, 24 hours, relative to 0.1% DMSO control
Experimental: The effect of the peptides on cell death/survival can be assessed using a caspase-3/7 assay in cultured cells such as mouse myoblast cells. Peptides were initially prepared as 10 mM stock in DMSO, diluted to 1 mM in H2O, and used at a final concentration of 10 μM (0.1% DMSO). […] Staurosporine (Abcam, Cambridge, Mass.) was dissolved at 10 mM in DMSO as a stock solution. Caspase-Glo 3/7 Assay Reagent was purchased from Promega (Madison, Wis.). C2C12 cell line was purchased from American Type Culture Collection (Manassas, Va.). C2C12 cells were grown in DMEM supplemented with 20% FBS with 100 IU/ml penicillin and 100 μg/ml streptomycin. […] C2C12 cells were seeded at 4,000 cells per well on 96-well plates. […] Caspase 3/7 activity was determined using a Caspase-Glo 3/7 Assay kit according to the manufacturer's instructions. Luminescence for each sample well on the plate was measured using a Cytation 3 plate reader (BioTek, Winooski, Vt.). Activity was calculated relative to 0.1% DMSO control.

C2C12 cells [3] = test: Glucose utilization in cultured C2C12 cells and insulin dependence; assay type: cell-based, mouse; settings: 22 h; for Glucose Utilization, Percent of Control Activity No Insulin: peptide 10 μM alone, glucose in medium relative to untreated cells; for Glucose Utilization, Percent of Control Activity With Insulin: peptide 10 μM with 5-20 nM insulin, glucose in medium relative to insulin treated cells
Source text: The effect of the peptides on glucose homeostasis can be assessed using an assay to monitor glucose utilization by cultured cells such as mouse myotubes. […] C2C12 mouse muscle cell line was purchased from Millipore Sigma (Saint Louis, Mo.). […] Three days after plating the medium was removed and with Differentiation Medium (DMEM/low glucose (1 g/L)+2% Horse Serum+antibiotics) added. […] After 5 days of differentiation, the medium was removed from myotube cultures and replaced with Assay Medium (DMEM/low glucose (1 g/L)+antibiotics). […] Following the 5 h incubation the medium was removed and fresh Assay Medium containing compounds added; 10 μM peptide in absence or presence of 5-20 nM insulin, or 1 mM metformin as a potent stimulator of glucose utilization. […] Following 22 h incubation, conditioned medium from each well was transferred to a fresh 96-well plate. Glucose concentrations in the medium were determined using a Glucose Assay kit (Abcam; Cambridge, Mass.) according to the manufacturer's instructions; absorbance measured using a Cytation 3 plate reader at 570 nm (BioTek, Winooski, Vt.). Absorbance values were expressed as percent control activity relative to untreated treated cells (no insulin) for 10 μM peptide alone or 5-20 nM insulin treated cells (with insulin) for 10 μM peptide in presence of 5-20 nM insulin. Untreated cells were used as reference for basal glucose utilization. The relative standard deviation from plate to plate of untreated control was <10%. Metformin at 1 mM was used as a potent control for increasing glucose utilization. Glucose levels for metformin (1 mM) treatment were <10% of the untreated control value. Data are presented as averages values from 2-3 independent experiments with each data point performed in triplicate.

C2C12 cells [4] = test: Cellular ROS levels induced by TBHP in C2C12 cells (DCFDA); assay type: cell-based, mouse; settings: peptide 10 μM 18-20 hours, then TBHP 100 μM 1 hour; relative to TBHP control
Experimental: The protective or synergistic effect of the peptides on cellular levels of reactive oxygen species (ROS) induced by oxidative stress can be assessed using an assay of ROS in cultured cells such as mouse myoblasts exposed to a suitable oxidative stress. Peptides were initially prepared as 10 mM stock in DMSO, diluted to 1 mM in H2O, and added at a final concentration of 10 μM (0.1% DMSO). […] TBHP was used at final concentration of 100 μM. Sulforaphane at final concentration of 10 μM was used as a protective control against TBHP induced ROS production. […] C2C12 cells were grown in DMEM supplemented with 20% FBS with 100 IU/ml penicillin and 100 μg/ml streptomycin. […] C2C12 cells were seeded at 7,500 cells per well on 96-well plates. […] After 18-20 hours of incubation the cells were loaded with DCFDA for 45 min. TBHP at 100 μM was then added to the appropriate wells for 1 hour. ROS activity was determined using a DCFDA Cellular ROS Detection Assay kit (Abcam, Cambridge, Mass.) according to the manufacturer's instructions. Fluorescence in each sample well on the plate was measured using a Cytation 3 plate reader at Ex/Em=485/535 nm (BioTek, Winooski, Vt.). Activity was calculated relative to TBHP control. The relative standard deviation of the sulforaphane control was <20%. The ROS level produced by the sulforaphane control in the presence of TBHP was 52% of the TBHP control.

Substance | Free Fatty Acid Levels, Percent of Isoproterenol Control Activity (3T3-L1 mouse adipocytes) [%] | ATP Levels, Percent of Control Activity (C2C12 cells [1]) [%] | Caspase 3/7 Activity, Percent of Control Activity (C2C12 cells [2]) [%] | Glucose Utilization, Percent of Control Activity No Insulin (C2C12 cells [3]) [%] | Glucose Utilization, Percent of Control Activity With Insulin (C2C12 cells [3]) [%] | Cellular ROS Levels Induced by TBHP, Percent of Control (C2C12 cells [4]) [%]
13 (RRMMGMVFQELCG[dA]) [compound 13] | 66.0 | 102.8 | 99.0 | 104.4 | 97.8 | 106.8
8 (RRMMGMVFQCLCG[dA]; cysteine pairing not given here) [compound 8] | 34.7 | 99.5 | 97.6 | 90.8 | 85.5 | 102.1
19 (RRMVFQCLCG[dA]; cysteine pairing not given here) [compound 19] | 31.0 | 93.6 | 100.1 | 100.1 | 76.5 | 92
14 (RRMMGMVFQCLEG[dA]) [compound 14] | 46.5 | 102.1 | 100.1 | 102.4 | 112.3 | 105.1
18 (RRXXGXVFQCLCGA; (3)..(3) Xaa is Norleucine; (4)..(4) Xaa is Norleucine; (6)..(6) Xaa is Norleucine; (14)..(14) D-Ala) [compound 18] | 77.3 | 95.5 | 93.8 | 103.6 | 122.1 | 109.4
17 (RRMMGMVFQSLSG[dA]) [compound 17] | 77.9 | 100.0 | 92.0 | 102.6 | 96.2 | 113.6
